Results: publication PMC9862037, “Interactions of Mycotoxin Alternariol with Cytochrome P450 Enzymes and OATP Transporters” (Metabolites, 2022)

How the values were obtained:
[1] = target: T1, OATP1B1 (Homo sapiens, UniProt Q9Y6L6); experiment: cell-based; set-up: expressed in transfected cells; host or cells: A431; details: A431-OATP1B1; pyranine 10 µM; pH 5.5; 15 min; read-out: IC50, OATP1B1 inhibition
Procedure: (§1) A431 cell lines overexpressing human OATPs (1A2, 1B1, 1B3, or 2B1) and their mock transfected controls were generated earlier. A431 cells expressed no or negligible OATPs compared to the overexpressing cell lines. Cells were cultured in Dulbecco’s modified Eagle medium (DMEM, Thermo Fisher Scientific, Waltham, MA, USA) with 10% fetal bovine serum, 2 mM L-glutamine, 100 U/mL penicillin, and 100 µg/mL streptomycin at 37 °C, with 5% CO2. OATP expression was regularly monitored (based on the transport activity of transfected cells), and the cells were used up to 20 passages.
Interaction between OATPs (1A2, 1B1, 1B3, and 2B1) and AOH was measured in an indirect transport assay with pyranine or sulforhodamine 101 as fluorescent probes. A431 cell overexpressing OATPs or their mock transfected controls were seeded on 96-well plates one day prior to the measurements in 200 µL DMEM in 8 × 10^4 cells/well density. […] Fluorescence was measured in an Enspire plate reader (Perkin Elmer, Waltham, MA, USA) in Ex/Em wavelengths 460/510 nm for pyranine and 586/605 nm for sulforhodamine 101. Bottom reading was applied with two horizontal (X) and two vertical (Y) points, measurement height was 3 mm with 200 flashes. IC50 values were calculated by sigmoidal fitting (Hill1), using the Origin (version 2018, OriginLab Corporation, Northampton, MA, USA) software.

[2] = target: T1, OATP1B1; type: cell-based; set-up: expressed in transfected cells; host or cells: A431; details: 2, 5 or 10 µM AOH; 15 min; pH 5.5
Procedure: The A431 cell line overexpressing OATP1B1 or mock transfected control were trypsinized, and counted with automated cell counter (TC10, BIORAD, Hercules, CA, USA). The cells were washed with 1 mL buffer (pH 5.5; described above) and centrifuged for 5 min at 1500 g. After the supernatant was removed, 2 × 10^6 cells in 50 µL volume of the same buffer were handed out into separate Eppendorf tubes, then 50 µL of AOH solutions (diluted in buffer, pH 5.5) was added (final concentrations: 2, 5, or 10 µM). The cells were incubated for 15 min at 37 °C in shaking water bath. The reaction was stopped with 1 mL ice-cold PBS, after which the tubes were centrifuged for 5 min at 1500 g and 4 °C. The supernatant was removed, and the cells were washed with 1 mL ice-cold PBS, then the cell pellet was stored at −80 °C until analyses.
Before HPLC measurements, cell pellets were dissolved in 100 μL of 1 M NaOH solution with vigorous vortexing. After 15 min sonication, the solution was neutralized with 100 μL of 1 M HCl, then 200 μL acetonitrile was added. […] Thereafter, the supernatant was directly analyzed with HPLC-FLD (see details in Section 2.7).
To examine the OATP1B1-mediated uptake of AOH in A431 cells, our recently reported magnesium-sensitized HPLC-FLD method was applied. […] AOH was quantified using 345 nm and 455 nm excitation and emission wavelengths, respectively. […]

[3] = target: T2, OATP1B3 (Homo sapiens, UniProt Q9NPD5); experiment: cell-based; details: A431-OATP1B3; pyranine 20 µM; pH 5.5; 30 min; read-out: IC50, OATP1B3 inhibition
T2 construct: expressed in transfected cells; host or cells: A431
T2 sequence (Q9NPD5 whole entry): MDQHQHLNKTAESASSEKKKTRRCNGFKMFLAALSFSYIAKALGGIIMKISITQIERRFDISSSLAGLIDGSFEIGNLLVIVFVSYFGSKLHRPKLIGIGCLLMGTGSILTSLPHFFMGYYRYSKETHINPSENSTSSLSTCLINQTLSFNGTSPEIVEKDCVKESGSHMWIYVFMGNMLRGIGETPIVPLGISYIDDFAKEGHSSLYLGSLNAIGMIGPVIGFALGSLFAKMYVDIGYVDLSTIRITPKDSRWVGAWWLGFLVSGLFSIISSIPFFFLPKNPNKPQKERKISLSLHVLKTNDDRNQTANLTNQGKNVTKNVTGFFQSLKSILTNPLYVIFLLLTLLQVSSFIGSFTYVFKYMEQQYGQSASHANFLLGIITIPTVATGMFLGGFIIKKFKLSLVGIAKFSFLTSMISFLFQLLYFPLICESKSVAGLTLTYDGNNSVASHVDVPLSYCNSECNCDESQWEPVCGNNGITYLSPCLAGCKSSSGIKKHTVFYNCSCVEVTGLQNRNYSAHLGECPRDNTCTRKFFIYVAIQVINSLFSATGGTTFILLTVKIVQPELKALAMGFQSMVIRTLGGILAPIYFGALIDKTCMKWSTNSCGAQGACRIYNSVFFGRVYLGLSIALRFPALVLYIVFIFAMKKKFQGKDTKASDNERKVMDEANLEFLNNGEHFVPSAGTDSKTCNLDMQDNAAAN
Procedure: as §1
Interaction between OATPs (1A2, 1B1, 1B3, and 2B1) and AOH was measured in an indirect transport assay with pyranine or sulforhodamine 101 as fluorescent probes. A431 cell overexpressing OATPs or their mock transfected controls were seeded on 96-well plates one day prior to the measurements in 200 µL DMEM in 8 × 10^4 cells/well density. Before the measurement, the medium was removed, and cells were washed three times with 200 µL PBS (phosphate-buffered saline, pH 7.2) at room temperature. Then the cells were preincubated with 50 µL uptake buffer (125 mM NaCl, 4.8 mM KCl, 1.2 mM CaCl2, 1.2 mM KH2PO4, […], 25 mM MES, and 5.6 mM glucose, with the pH adjusted using 1 M HEPES and 10 N NaOH, pH 5.5 for OATP1B1/1B3/2B1 and pH 7.4 for OATP1A2) with or without increasing concentrations (0.00, 0.16, 0.31, 0.63, 1.25, 2.5, 5.0, 10, and 20 μM) of AOH for 5 min. The reaction was started when the probe was added in 10 µM (pyranine; OATP1B1), 20 µM (pyranine; OATP2B1 and OATP1B3), or 0.5 µM (sulforhodamine 101; OATP1A2) final concentrations. […] Fluorescence was measured in an Enspire plate reader (Perkin Elmer, Waltham, MA, USA) in Ex/Em wavelengths 460/510 nm for pyranine and 586/605 nm for sulforhodamine 101. Bottom reading was applied with two horizontal (X) and two vertical (Y) points, measurement height was 3 mm with 200 flashes. IC50 values were calculated by sigmoidal fitting (Hill1), using the Origin (version 2018, OriginLab Corporation, Northampton, MA, USA) software.

T1 sequence (Q9Y6L6 whole entry): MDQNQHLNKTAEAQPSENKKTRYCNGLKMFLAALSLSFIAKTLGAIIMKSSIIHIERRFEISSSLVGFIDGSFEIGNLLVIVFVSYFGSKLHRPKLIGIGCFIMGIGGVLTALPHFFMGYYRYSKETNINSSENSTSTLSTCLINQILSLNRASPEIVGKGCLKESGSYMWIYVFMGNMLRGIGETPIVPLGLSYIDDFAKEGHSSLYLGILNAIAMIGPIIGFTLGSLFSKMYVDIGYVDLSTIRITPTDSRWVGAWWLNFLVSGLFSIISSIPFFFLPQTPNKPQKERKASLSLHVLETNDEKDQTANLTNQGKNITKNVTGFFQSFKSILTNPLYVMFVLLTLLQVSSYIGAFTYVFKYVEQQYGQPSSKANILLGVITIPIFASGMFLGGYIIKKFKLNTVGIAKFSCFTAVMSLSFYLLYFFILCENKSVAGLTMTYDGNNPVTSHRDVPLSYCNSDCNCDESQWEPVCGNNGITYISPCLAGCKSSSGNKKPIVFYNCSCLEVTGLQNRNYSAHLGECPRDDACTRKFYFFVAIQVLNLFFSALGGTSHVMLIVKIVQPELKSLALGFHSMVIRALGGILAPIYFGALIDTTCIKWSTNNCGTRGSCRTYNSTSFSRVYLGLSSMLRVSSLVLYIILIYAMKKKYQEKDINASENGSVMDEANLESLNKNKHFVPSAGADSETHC

Cc1cc(O)cc2oc(=O)c3c(O)cc(O)cc3c12 [AOH, Alternariol]
IC50 [1]: 2 µM | cellular AOH levels in OATP1B1 expressing vs mock cells [2]: higher cellular AOH levels | IC50 [3]: 4.1 µM
